Laboratory results taken from patent US7087736B1, “Tyrosine DNA phosphodiesterases (TDP) and related polypeptides nucleic acids vectors TDP producing host cells antibodies and methods of use” (priority 1999, dated 2006).

Test system: Saccharomyces cervisiae strains (parental, enz mutant, HNY243, HNY244)
Test: Sensitivity of yeast strains to killing by drug (colony survival after 24 hrs)
Type: cell-based
Description: The strains were compared for sensitivity to killing by camptothecin. Despite the dramatic difference in TDP activity, the parental line and the backcrossed enz mutant were insensitive to camptothecin. When combined with a disruption of the RAD9 gene, the camptothecin sensitivity of the low activity mutant (strain HNY244) was increased by a factor of 12 relative to the rad9 derivative of the parental strain HNY243. The same difference was observed after the mutant had undergone two additional rounds of backcrossing. In order to confirm that camptothecin-induced damage was due to topoisomerase trapping, the TOP1 gene of HNY244 was disrupted and survival increased nearly 1,000-fold.
Each pool was separately grown and treated with camptothecin for 24 hours. Cells were grown to near-saturation in medium with glycerol in place of dextrose (YPG) to ensure a starting population with few or no petite derivatives in accordance with standard methods. These cells were resuspended at OD650=0.4 in YPD (bacto-yeast extract, peptone and dextrose standard yeast growth medium), grown for 2 hrs and diluted again in YPD to OD650=0.4. Drug was then added and samples were withdrawn immediately and after 24 hrs at 30° C. After dilution and plating on YPD, surviving colonies were counted after 3-4 days of growth. When plasmid-containing strains were assessed for camptothecin sensitivity, YPD was replaced throughout by uracil-deficient minimal medium to ensure plasmid retention. The survivors were amplified by growth in YPD.

| Compound | sensitization of the mutant line to killing (low TDP activity mutant line) | camptothecin sensitivity of YBR223c disruption strain (HNY243 with YBR223c ORF disrupted) | camptothecin resistance after transformation (HNY244 transformed with pNS2 or pAXb) | sensitivity to killing by camptothecin (backcrossed enz mutant (low TDP activity)) | increase of camptothecin sensitivity relative to rad9 derivative of parental strain HNY243 (low activity mutant with RAD9 disruption (strain HNY244)) [factor] | sensitivity to killing by camptothecin (parental line (normal TDP activity)) | increase of survival after disruption of TOP1 gene (strain HNY244 with TOP1 disrupted, camptothecin-induced damage) |
| --- | --- | --- | --- | --- | --- | --- | --- |
| COS(C)(=O)=O [methyl methane sulfonate] | not sensitized | – | – | – | – | – | – |
| CC[C@@]1(O)C(=O)OCc2c1cc1n(c2=O)Cc2cc3ccccc3nc2-1 [camptothecin] | – | very similar to that of HNY244 | improved camptothecin resistance | insensitive | 12 | insensitive | ~1,000 fold |
